The text below walks through data of patent US10787462B2, “Heterocyclic compound” (TAKEDA PHARMACEUTICAL COMPANY LIMITED, priority 2015, dated 2020).

For one test, the target named is T1, human RIPK1 (1-375) (Homo sapiens, UniProt Q13546).
T1 construct: human RIPK1 (1-375) gene; GST; made in house; host or cells: Sf-9 insect cells
T1 sequence (Q13546 1-375): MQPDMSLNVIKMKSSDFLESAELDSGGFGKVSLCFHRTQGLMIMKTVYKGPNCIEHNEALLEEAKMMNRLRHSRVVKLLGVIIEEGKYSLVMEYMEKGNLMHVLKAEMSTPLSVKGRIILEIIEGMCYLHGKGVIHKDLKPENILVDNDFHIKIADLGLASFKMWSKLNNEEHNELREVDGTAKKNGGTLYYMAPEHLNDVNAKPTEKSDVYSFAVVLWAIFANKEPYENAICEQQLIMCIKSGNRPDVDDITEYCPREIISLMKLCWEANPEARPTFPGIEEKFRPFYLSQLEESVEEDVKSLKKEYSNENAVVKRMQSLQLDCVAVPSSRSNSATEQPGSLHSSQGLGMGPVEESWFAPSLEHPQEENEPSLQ
Nature of the test: Human RIPK1 enzyme inhibitory effect (ADP-Glo Kinase Assay). It is filed as biochemical. As to conditions: 10 μM test compound; well without enzyme = 100% inhibition; 10 µM. On the procedure:
Experimental Example 1: Human RIPK1 Enzyme Inhibitory Effect
Enzyme was prepared by transducing human RIPK1 (1-375) gene to Sf-9 insect cells, and purifying using GST affinity column, and enzyme activity evaluation was performed using the enzyme. The enzyme was used after preservation at −70° C. The RIPK1 enzyme inhibitory activity of the test compound was measured using ADP-Glo™ Kinase Assay (Promega) according the following experiment methods. The test compound diluted with assay buffer (25 mM HEPES (pH 7.5), 10 mM MgCl2, 0.01% Tween-20, 2 mM DTT) was added to 384 well plate by each 2 μL. Next, RIPK1 enzyme solution diluted with the assay buffer was added thereto by each 2 μL, and the mixture was incubated at room temperature for 20 min. After the incubation, 0.6 mM ATP solution was added thereto by each 2 μL to initiate an enzyme reaction. The mixture was incubated at room temperature for 120 min, and ADP-Glo solution prepared according to Promega protocol was added to the 384 well plate by each 3 μL, and the reaction was performed at room temperature for 40 min. Then, Kinase-Detection solution was added to the 384 well plate by each 6 μL, and the reaction was performed at room temperature for 40 min. After the reaction, the luminescence intensity was measured by plate reader Envision (PerkinElmer).
For the compound `CN1C(=O)C(N2CCc3c(nn(Cc4ccccc4)c3Cl)C2=O)CCc2ncccc21` (stereo not drawn) [Example 67, 7-(2-benzyl-3-chloro-7-oxo-2,4,5,7-tetrahydro-6H-pyrazolo[3,4-c]pyridin-6-yl)-5-methyl-5,7,8,9-tetrahydro-6H-pyrido[3,2-b]azepin-6-one (optical isomer)], the “human RIPK1 enzyme inhibitory effect at 10 μM (% inhibition)” value stood at 73%. In the case of `CN1C(=O)C(N2CCc3c(nn(Cc4ccccc4)c3Cl)C2=O)CCc2cccnc21` (centres unmarked) [Example 94, 7-(2-benzyl-3-chloro-7-oxo-2,4,5,7-tetrahydro-6H-pyrazolo[3,4-c]pyridin-6-yl)-9-methyl-5,6,7,9-tetrahydro-8H-pyrido[2,3-b]azepin-8-one], the “human RIPK1 enzyme inhibitory effect at 10 μM (% inhibition)” value worked out at 101%. As for `CN1C(=O)C(N2CCc3c(nn(Cc4ccccc4)c3Cl)C2=O)CCc2c1cnn2C` (centres unmarked) [Example 127, 6-(2-benzyl-3-chloro-7-oxo-2,4,5,7-tetrahydro-6H-pyrazolo[3,4-c]pyridin-6-yl)-1,4-dimethyl-4,6,7,8-tetrahydropyrazolo[4,3-b]azepin-5(1H)-one], the “human RIPK1 enzyme inhibitory effect at 10 μM (% inhibition)” value came to 100%. As to `CN1C(=O)C(N2CCc3c(nn(Cc4ccccc4F)c3Cl)C2=O)CCc2c1cnn2C` (centres unmarked) [Example 132, 6-(3-chloro-2-(2-fluorobenzyl)-7-oxo-2,4,5,7-tetrahydro-6H-pyrazolo[3,4-c]pyridin-6-yl)-1,4-dimethyl-4,6,7,8-tetrahydropyrazolo[4,3-b]azepin-5(1H)-one], the “human RIPK1 enzyme inhibitory effect at 10 μM (% inhibition)” value came to 89%. On the same count and under the same terms, then `CN1C(=O)C(N2CCc3c(nn(Cc4ccccc4F)c3Cl)C2=O)CCc2cnccc21` (centres unmarked) [Example 106, 3-(3-chloro-2-(2-fluorobenzyl)-7-oxo-2,4,5,7-tetrahydro-6H-pyrazolo[3,4-c]pyridin-6-yl)-1-methyl-1,3,4,5-tetrahydro-2H-pyrido[4,3-b]azepin-2-one], with 95%.

Still in this test, the particulars now being: read-out: human RIPK1 enzyme inhibitory effect at 10 μM (% inhibition), 10 μM test compound; well without enzyme = 100% inhibition.
Take `CN1C(=O)[C@@H](N2CCc3cn(Cc4ccccc4)nc3C2=O)COc2cc(Br)ccc21` [Example 41, (3S)-3-(2-benzyl-7-oxo-2,4,5,7-tetrahydro-6H-pyrazolo[3,4-c]pyridin-6-yl)-8-bromo-5-methyl-2,3-dihydro-1,5-benzoxazepin-4(5H)-one]: the inhibition at 10 µM was 101%. Same read-out and setting: then `CN1C(=O)[C@@H](N2CCc3c(nn(Cc4ccccc4)c3Cl)C2=O)COc2cc(C(=O)NCCOCCOCCOCCOc3ccc4ccccc4c3)ccc21` [Example 148, (3S)-3-(2-benzyl-3-chloro-7-oxo-2,4,5,7-tetrahydro-6H-pyrazolo[3,4-c]pyridin-6-yl)-5-methyl-N-(2-(2-(2-(2-(2-naphthyloxy)ethoxy)ethoxy)ethoxy)ethyl)-4-oxo-2,3,4,5-tetrahydro-1,5-benzoxazepine-8-carboxamide], with 101%; and `CN1C(=O)[C@@H](N2CCc3sc(Cc4ccccc4)nc3C2=O)COc2ccccc21` [Example 16, (3S)-3-(2-benzyl-4-oxo-6,7-dihydro[1,3]thiazolo[4,5-c]pyridin-5(4H)-yl)-5-methyl-2,3-dihydro-1,5-benzoxazepin-4(5H)-one], with 98%. Regarding `CCNC(=O)c1ccc2c(c1)OC[C@H](N1CCc3c(nn(Cc4ccccc4)c3Cl)C1=O)C(=O)N2C` [Example 147, (3S)-3-(2-benzyl-3-chloro-7-oxo-2,4,5,7-tetrahydro-6H-pyrazolo[3,4-c]pyridin-6-yl)-N-ethyl-5-methyl-4-oxo-2,3,4,5-tetrahydro-1,5-benzoxazepine-8-carboxamide], the inhibition at 10 µM worked out at 100%. On to `CN1C(=O)[C@@H](N2CCc3cn(Cc4ccc(C#N)cc4F)nc3C2=O)COc2ccccc21` [Example 162, 3-fluoro-4-((6-((3S)-5-methyl-4-oxo-2,3,4,5-tetrahydro-1,5-benzoxazepin-3-yl)-7-oxo-4,5,6,7-tetrahydro-2H-pyrazolo[3,4-c]pyridin-2-yl)methyl)benzonitrile], for which the inhibition at 10 µM was found to be 99%.

For `CN1C(=O)[C@@H](N2CCc3ccc(Cc4ccccc4)nc3C2=O)COc2ccccc21` [Example 17, (3S)-3-(2-benzyl-8-oxo-5,8-dihydro-1,7-naphthyridin-7(6H)-yl)-5-methyl-2,3-dihydro-1,5-benzoxazepin-4(5H)-one], the inhibition at 10 µM turned out to be 97%. As to `O=C1Nc2cc(Cl)ccc2OC[C@@H]1N1CCc2c(nn(Cc3ccccc3)c2Cl)C1=O` [Example 144, (3S)-3-(2-benzyl-3-chloro-7-oxo-2,4,5,7-tetrahydro-6H-pyrazolo[3,4-c]pyridin-6-yl)-7-chloro-2,3-dihydro-1,5-benzoxazepin-4(5H)-one], the inhibition at 10 µM is 100%. As to `CN1C(=O)[C@@H](N2CCc3cn(CC4CCC4)nc3C2=O)COc2ccccc21` [Example 31, (3S)-3-(2-(cyclobutylmethyl)-7-oxo-2,4,5,7-tetrahydro-6H-pyrazolo[3,4-c]pyridin-6-yl)-5-methyl-2,3-dihydro-1,5-benzoxazepin-4(5H)-one], the inhibition at 10 µM is 98%.

As to `CN1C(=O)[C@@H](N2CCc3c(nn(Cc4ccccc4)c3Cl)C2=O)COc2cc(Br)ccc21` [Example 58, (3S)-3-(2-benzyl-3-chloro-7-oxo-2,4,5,7-tetrahydro-6H-pyrazolo[3,4-c]pyridin-6-yl)-8-bromo-5-methyl-2,3-dihydro-1,5-benzoxazepin-4(5H)-one], the inhibition at 10 µM is 101%. For `CNC(=O)c1ccc2c(c1)OC[C@H](N1CCc3cn(Cc4c(F)cccc4F)nc3C1=O)C(=O)N2C` [Example 116, (3S)-3-(2-(2,6-difluorobenzyl)-7-oxo-2,4,5,7-tetrahydro-6H-pyrazolo[3,4-c]pyridin-6-yl)-N,5-dimethyl-4-oxo-2,3,4,5-tetrahydro-1,5-benzoxazepine-8-carboxamide], the inhibition at 10 µM came out at 101%. On to `CN1C(=O)[C@@H](N2CCc3cn(CC4CC4)nc3C2=O)COc2ccccc21` [Example 27, (3S)-3-(2-(cyclopropylmethyl)-7-oxo-2,4,5,7-hydro-6H-pyrazolo[3,4-c]pyridin-6-yl)-5-methyl-2,3-dihydro-1,5-benzoxazepin-4(5H)-one], for which the inhibition at 10 µM was 93%.

For the compound `CN1C(=O)[C@@H](N2CCc3cn(CC4(C)CCC4)nc3C2=O)COc2ccccc21` [Example 173, (3S)-5-methyl-3-(2-((1-methylcyclobutyl)methyl)-7-oxo-2,4,5,7-tetrahydro-6H-pyrazolo[3,4-c]pyridin-6-yl)-2,3-dihydro-1,5-benzoxazepin-4(5H)-one], the inhibition at 10 µM worked out at 98%.

On to `CNC(=O)c1ccc2c(c1)OC[C@H](N1CCc3cn(Cc4ccccc4F)nc3C1=O)C(=O)N2C` [Example 117, (3S)-3-(2-(2-fluorobenzyl)-7-oxo-2,4,5,7-tetrahydro-6H-pyrazolo[3,4-c]pyridin-6-yl)-N,5-dimethyl-4-oxo-2,3,4,5-tetrahydro-1,5-benzoxazepine-8-carboxamide], for which the inhibition at 10 µM was found to be 101%.

Regarding `CN1C(=O)[C@@H](N2CCc3cn(Cc4ncccn4)nc3C2=O)COc2ccccc21` [Example 36, (3S)-5-methyl-3-(7-oxo-2-(pyrimidin-2-ylmethyl)-2,4,5,7-tetrahydro-6H-pyrazolo[3,4-c]pyridin-6-yl)-2,3-dihydro-1,5-benzoxazepin-4(5H)-one], the inhibition at 10 µM is 86%. Same read-out and setting: the same measure for `CN1C[C@H](N2CCc3cn(Cc4ccccc4)nc3C2=O)C(=O)N(C)c2ccccc21` [Example 151, (3S)-3-(2-benzyl-7-oxo-2,4,5,7-tetrahydro-6H-pyrazolo[3,4-c]pyridin-6-yl)-1,5-dimethyl-1,3,4,5-tetrahydro-2H-1,5-benzodiazepin-2-one]: 98%; for `CN1C(=O)[C@@H](N2CCc3c(nn(Cc4ccccc4)c3C3CC3)C2=O)COc2ccccc21` [Example 159, (3S)-3-(2-benzyl-3-cyclopropyl-7-oxo-2,4,5,7-tetrahydro-6H-pyrazolo[3,4-c]pyridin-6-yl)-5-methyl-2,3-dihydro-1,5-benzoxazepin-4(5H)-one]: 100%; for `CN1C(=O)[C@@H](N2CCc3c(nn(Cc4ccccc4)c3OC(F)F)C2=O)COc2cc(C#N)ccc21` [Example 124, (32)-3-(2-benzyl-3-(difluoromethoxy)-7-oxo-2,4,5,7-tetrahydro-6H-pyrazolo[3,4-c]pyridin-6-yl)-5-methyl-4-oxo-2,3,4,5-tetrahydro-1,5-benzoxazepine-8-carbonitrile]: 98%. On the same count and under the same terms, then `N#Cc1ccc2c(c1)OC[C@H](N1CCc3c(nn(Cc4ccccc4)c3Cl)C1=O)C(=O)N2` [Example 83, (3S)-3-(2-benzyl-3-chloro-7-oxo-2,4,5,7-tetrahydro-6H-pyrazolo[3,4-c]pyridin-6-yl)-4-oxo-2,3,4,5-tetrahydro-1,5-benzoxazepine-8-carbonitrile], with 92%.
